Seven molecules from patent US20180325861A1, “NOVEL CANNABINOID FORMULATIONS” (priority 2015, published 2018) can be followed below.

Like-named read-outs stand apart in the source and are kept apart here. Marks after values point to notes of the source that are not given here.

The nature of data set [1]: Combinatory PNL formulations with cyclosporine (2.2.1). Format: physicochemical. The note with it: for dissolution in the cyclosporine formulation: 50 and 100 mg added to cyclosporine solution, visual, after refrigeration. On the procedure:
The mixtures were examined visually for complete dissolution, precipitation after 24 hours at refrigeration and for particle size when added to water.
The particle size of the formulations, when added to water, was above 100 nm, compared to the original formulation, as determined by transmission UV at 550 nm turbidity test.
Extensive testing and adjustments were required to design a formulation that could fit two or more agents in a single formulation.

How the values of data set [2] were obtained:
Formulations prepared by mixing the dry solid powder of the tested compound in either the blank formulation to form 5% w/v or in a formulation already containing 5% w/w CBD. Particle size was determined by particle size analyzer.

A short description of data set [3]: Preliminary screening for maximum CBD loading. Format: physicochemical.

Take `C[C@@H]1[C@H](O)[C@@H](C)/C=C/C=C/C=C/C=C/C=C/C=C/C=C/[C@H](O[C@@H]2O[C@H](C)[C@@H](O)[C@H](N)[C@@H]2O)C[C@@H]2O[C@](O)(C[C@@H](O)C[C@@H](O)[C@H](O)CC[C@@H](O)C[C@@H](O)CC(=O)O[C@H]1C)C[C@H](O)[C@H]2C(=O)O` [Amphitericin B]: the “dissolution in the cyclosporine formulation” value in data set [1] is listed as “did not fully dissolve”.
As for `CCOC(=O)c1ccc(N)cc1` [Benzocaine], in data set [2] (3 hr after dissolution), the PDI was 0.449, the Particle size came to 62.22 nm and the Visual result is listed as “clear”. Further, in data set [2] (after 13 days in 4 C), the PDI is on record as 0.479, the Particle size came out at 65.82 nm and the Visual result is given as “clear”.
With `C=C(C)[C@@H]1CCC(C)=C[C@H]1c1c(O)cc(CCCCC)cc1O` [CBD, Cannabidiol], in data set [1] (CBD at 50 mg), the “appearance in the cyclosporine solution” value is reported as “clear solution”. Besides, in data set [3], the “maximum CBD load allowing formation of clear solution” value is 10-12.5%.
Regarding `O=C(N[C@H](CO)[C@H](O)c1ccc([N+](=O)[O-])cc1)C(Cl)Cl` [Chloramphenicol], in data set [2] (3 hr after dissolution), the PDI is given as 0.118, the Particle size is 30.03 nm and the Visual result is listed as “clear”. For the same molecule, in data set [2] (after 13 days in 4 C), the PDI turned out to be 0.172, the Particle size worked out at 29.64 nm and the Visual result is “clear”.
Turning to `CC(C)CCC[C@@H](C)[C@H]1CC[C@H]2[C@@H]3CC=C4C[C@@H](O)CC[C@]4(C)[C@H]3CC[C@]12C` [Cholesterol], in data set [2] (3 hr after dissolution), the PDI was 0.487**, the Particle size worked out at 96.43 nm and the Visual entry is on record as “turbid”. Besides, in data set [2] (after 13 days in 4 C), the PDI is recorded as 0.516, the Particle size is reported as 86.94 nm and the Visual entry is recorded as “turbid”.
Consider `CC(C)Cc1ccc(C(C)C(=O)O)cc1` (centres unmarked) [Ibuprofen], for which, in data set [2] (3 hr after dissolution), the PDI was determined as 0.398, the Particle size is 74.28 nm and the Visual entry was “clear”. In data set [2] (after 13 days in 4 C), the PDI was found to be 0.367, the Particle size is reported as 67.86 nm and the Visual result is given as “clear”.
For `CC(=O)O[C@H]1C(=O)[C@@]2(C)[C@H]([C@H](OC(=O)c3ccccc3)[C@]3(O)C[C@H](OC(=O)[C@H](O)[C@@H](NC(=O)c4ccccc4)c4ccccc4)C(C)=C1C3(C)C)[C@]1(OC(C)=O)CO[C@@H]1C[C@@H]2O` [Paclitxel], the “dissolution in the cyclosporine formulation” value in data set [1] is given as “did not fully dissolve”. The “Solubility in PNL with 5% CBD” value in data set [2] was “~”. For the same molecule, in data set [2] (3 hr after dissolution), the Particle size is listed as around 50 nm. The values for the Visual result in data set [2] (3 hr after dissolution) and in data set [2] (after 13 days in 4 C) were “clear” and “precipitate”, respectively.
